Experimental data published in publication PMC5561075, “Identification and Characterization of a Bacterial Homolog of Chloride Intracellular Channel (CLIC) Protein” (Scientific Reports, 2017).

Biological target: Ec SspA (Escherichia coli, UniProt P0ACA3)
Test: single-channel recording in planar lipid bilayers
Format: biochemical
Conditions: channel blocker, POPE:POPS:cholesterol 4:1:1, 500 mM KCl cis vs 50 mM KCl trans, 10 mM Tris-HCl pH 7.4, 1 mM DTT, room temperature

Ec SspA, sequence (P0ACA3 whole entry): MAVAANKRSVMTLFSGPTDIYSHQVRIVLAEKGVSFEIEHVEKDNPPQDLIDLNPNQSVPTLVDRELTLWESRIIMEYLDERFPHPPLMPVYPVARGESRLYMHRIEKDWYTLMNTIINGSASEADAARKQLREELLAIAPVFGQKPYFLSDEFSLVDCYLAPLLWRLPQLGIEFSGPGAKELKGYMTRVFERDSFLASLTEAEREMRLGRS

CC1(C2CCCC2)Cc2cc(OCC(=O)O)c(Cl)c(Cl)c2C1=O (stereo not shown) [IAA-94]
open probability at 100 μM: 0.1 ± 0.05
